Like-named read-outs stand apart in the source and are kept apart here.

One data set addresses CDK8 (Homo sapiens, UniProt P49336). In words: CDK8 enzyme activity assay (ADP-Glo Kinase Assay). It is filed as biochemical. The conditions noted are these: means ± SD; for inhibition at 0.2 µM: CDK8, 200 nM, two experiments, read-out: Inhibition rate @ 200 nM (%); for IC50: three experiments. The protocol: Some of them with high inhibition rates were further measured for their IC50 values. Compound SEL-120 34 A was selected as a positive control. [table] [table] page 14: CO2 atmosphere incubator for 24 h. Then, medium with compound at the concentrations of 100, 20, 4, 0.8, 0.016 μM was added into each well for another 48 h and incubated with CCK-8 (10 μL) for 2 h at 37 °C. The absorbance value at 450 nm was measured by the microplate reader (PerkinElmer Envision). 1.4 Kinase Assay The kinase inhibition was detected by ADP-Glo™ Kinase Assay (Promega) using a black 384-well plate. The active CDK8 kinase was diluted in mixture (5 ng enzyme, 0.5 μg substrate, 50 μM DTT, 1 μL reaction buffer and added ddH2O to 3 μL each well) and the final ATP concentrations of was 50 μM. After incubation at room temperature, ADP-Glo™ solution and kinase detection reagent was added. The data was collected by the microplate reader. 1.5 Cellular thermal shift assay HCT-116 cells were cultured in cell culture dishes and treated with 5 μM compound 12 for 4 h. HCT-116 cells were collected, washed by PBS and cell suspensions were divided into 12 PCR tubes equally. Then,11 tubes were heated at 37, […] After that, cells were broken by ultr asonic treatment and centrifuged at 12000 rpm for 20 min. The supernatant was analyzed by western blot. 1.6 Biotin-pulldown assay After co-treated with 2 μM biotinylated compound and compound 12 for 12 h, HCT-116 cells were lysed with NP-40 containing PMSF and centrifuged at 14000 r for 30 min at 4 °C. Then, 40 μL supernatant was used as the input by adding 10 μL 5×SDS loading buffer, and the remains were mixed with Streptavidin Agarose (Novex, Carlsbad, CA, USA). After 6 h incuba tion at 4 °C, the beads were washed three times using lysis buffer and resuspended in 2× SDS loading buffer. HEK -293T cells overexpressed flag -tagged CDK8 were treated using above method. The samples were analyzed by western blot.

Data set [1] can be described thus: Caco-2 permeability determination. Type of data set: in vitro ADME. Particulars: human; for Papp A→B: Caco-2, A→B; for Papp B→A: Caco-2, B→A. In general terms: Caco-2 monolayers are a common model of the intestinal barrier.
[2] abbreviates: Caco-2, Caco-2, A→B, read-out: Recovery A→B.
Where [3] appears, read: Caco-2, Caco-2, B→A, read-out: Recovery B→A.

Chain of CDK8 (P49336 whole entry): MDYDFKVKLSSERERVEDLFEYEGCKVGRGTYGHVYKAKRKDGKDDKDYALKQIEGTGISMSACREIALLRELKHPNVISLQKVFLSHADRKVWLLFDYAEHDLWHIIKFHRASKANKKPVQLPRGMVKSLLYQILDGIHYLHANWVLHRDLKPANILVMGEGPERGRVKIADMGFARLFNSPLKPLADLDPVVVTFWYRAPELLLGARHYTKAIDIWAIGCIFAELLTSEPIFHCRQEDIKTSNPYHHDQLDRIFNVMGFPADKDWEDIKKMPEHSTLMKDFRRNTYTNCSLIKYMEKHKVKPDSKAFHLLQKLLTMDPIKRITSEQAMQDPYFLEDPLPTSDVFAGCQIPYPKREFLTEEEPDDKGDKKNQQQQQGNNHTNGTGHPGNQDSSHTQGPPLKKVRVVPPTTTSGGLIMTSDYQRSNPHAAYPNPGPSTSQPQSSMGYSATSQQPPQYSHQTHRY
Chain of CDK8 (P24863 whole entry partner): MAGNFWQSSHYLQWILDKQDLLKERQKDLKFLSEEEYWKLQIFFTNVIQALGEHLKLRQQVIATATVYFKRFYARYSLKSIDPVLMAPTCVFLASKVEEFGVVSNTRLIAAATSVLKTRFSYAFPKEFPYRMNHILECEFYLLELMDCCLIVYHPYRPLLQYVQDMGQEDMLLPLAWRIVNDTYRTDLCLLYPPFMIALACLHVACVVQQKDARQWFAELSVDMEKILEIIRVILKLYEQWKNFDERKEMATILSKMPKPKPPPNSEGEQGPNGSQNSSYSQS

Consider `NC(=O)c1cccc(-c2cnc3[nH]ccc3n2)c1` [Compound 1], for which, on CDK8, the inhibition (usually the share of the control response that was lost under treatment) at 0.2 µM was 63 ± 4.5% and the IC50 – broadly, the concentration needed to halve the response being measured – was found to be 0.106 ± 0.0046 µM.

For the molecule `NC(=O)c1cccc(-c2cnc3[nH]ncc3c2)c1` [Compound 2], the inhibition at 0.2 µM on CDK8 was 35.2 ± 2.8%. `NC(=O)c1cccc(-c2ccc(N)nc2)c1` [Compound 3]: on CDK8, the inhibition at 0.2 µM worked out at 50.8 ± 2.3% and inhibition was half-maximal at 0.177 ± 0.0072 µM (IC50). With `NC(=O)c1cccc(-c2cnc(N)c(Cl)c2)c1` [Compound 4], the inhibition at 0.2 µM on CDK8 is 45.6 ± 4.2%. Regarding `NC(=O)c1cccc(-c2cncc3ccccc23)c1` [Compound 5], on CDK8, the inhibition at 0.2 µM stood at 55.7 ± 3.8% and inhibition was half-maximal at 0.186 ± 0.0045 µM (IC50). On the same counts, the results for `NC(=O)c1cccc(-c2cnc(N)c3ccccc23)c1` [Compound 6] are 75.8 ± 5.9% and 0.0645 ± 0.0038 µM. On the same counts, the results for `NC(=O)c1cccc(-c2ccc3[nH]ccc3c2)c1` [Compound 7] are 59.1 ± 2.1% and 0.212 ± 0.0061 µM.

With `Cn1ccc2cc(-c3cccc(C(N)=O)c3)ccc21` [Compound 8], at CDK8, the inhibition at 0.2 µM worked out at 51.7 ± 5.4% and the IC50 was 0.255 ± 0.0045 µM.

`NC(=O)c1cccc(-c2ccc3occc3c2)c1` [Compound 9]: on CDK8, the inhibition at 0.2 µM was found to be 60.4 ± 4.3% and it took 0.19 ± 0.0049 µM to reach half-maximal inhibition (IC50).

In the case of `NC(=O)c1cccc(-c2ccc3sccc3c2)c1` [Compound 10], the inhibition at 0.2 µM at CDK8 was 38.3 ± 2.2%. The same measure, in the same setting: with `NC(=O)c1cccc(-c2cnc3[nH]cc(Cl)c3c2)c1` [Compound 11] the figure was 51.8 ± 4.3%. For `NC(=O)c1cccc(-c2cnc3[nH]cc(-c4cccs4)c3c2)c1` [Compound 14], at CDK8, the inhibition at 0.2 µM came out at 52.5 ± 2.8% and the IC50 is 0.186 ± 0.0046 µM. `NC(=O)c1cccc(-c2cnc3[nH]cc(-c4cn[nH]c4)c3c2)c1` [Compound 15]: the inhibition at 0.2 µM at CDK8 came to 49.1 ± 3.4%. `Cn1cc(-c2c[nH]c3ncc(-c4cccc(C(N)=O)c4)cc23)cn1` [Compound 16]: the inhibition at 0.2 µM on CDK8 stood at 29.5 ± 2.3%. For `CCOC(C)n1cc(-c2c[nH]c3ncc(-c4cccc(C(N)=O)c4)cc23)cn1` (centres unmarked) [Compound 17], the inhibition at 0.2 µM at CDK8 is 46.5 ± 1.8%. Same read-out and setting: with `NC(=O)c1cccc(-c2cnc3[nH]cc(-c4cnn(C(F)F)c4)c3c2)c1` [Compound 18] the figure was 32.5 ± 4.9%.

Take `NC(=O)c1cccc(-c2cnc3[nH]cc(-c4ccccc4)c3c2)c1` [Compound 19]: at CDK8, the inhibition at 0.2 µM is 57.4 ± 1.4% and 0.158 ± 0.0043 µM corresponded to half-maximal inhibition (IC50). On the same counts, the results for `NC(=O)c1cccc(-c2cnc3[nH]cc(-c4ccccc4F)c3c2)c1` [Compound 20] are 58.7 ± 3.3% and 0.161 ± 0.0031 µM.

Consider `NC(=O)c1cccc(-c2cnc3[nH]cc(-c4ccccc4Cl)c3c2)c1` [Compound 21], for which the inhibition at 0.2 µM on CDK8 was 23.6 ± 2.6%.

With `NC(=O)c1cccc(-c2cnc3[nH]cc(-c4ccccc4O)c3c2)c1` [Compound 22], the inhibition at 0.2 µM on CDK8 is 36.2 ± 2.7%. For `Cc1ccccc1-c1c[nH]c2ncc(-c3cccc(C(N)=O)c3)cc12` [Compound 23], at CDK8, the inhibition at 0.2 µM amounted to 51.6 ± 2.6% and the IC50 amounted to 0.193 ± 0.0066 µM. As to `CCc1ccccc1-c1c[nH]c2ncc(-c3cccc(C(N)=O)c3)cc12` [Compound 24], at CDK8, the inhibition at 0.2 µM is 24.6 ± 2.4%. In the case of `COc1ccccc1-c1c[nH]c2ncc(-c3cccc(C(N)=O)c3)cc12` [Compound 25], on CDK8, the inhibition at 0.2 µM worked out at 62 ± 4.6% and the midpoint of inhibition, the IC50, lay at 0.136 ± 0.0053 µM. Turning to `CC(C)c1ccccc1-c1c[nH]c2ncc(-c3cccc(C(N)=O)c3)cc12` [Compound 26], the inhibition at 0.2 µM on CDK8 amounted to 33.1 ± 4.2%.

`NC(=O)c1cccc(-c2cnc3[nH]cc(-c4ccccc4C(F)(F)F)c3c2)c1` [Compound 27]: at CDK8, the inhibition at 0.2 µM was 15.9 ± 5.2%. For `NC(=O)c1cccc(-c2cnc3[nH]cc(-c4ccccc4OC(F)(F)F)c3c2)c1` [Compound 28], the inhibition at 0.2 µM at CDK8 worked out at 16.9 ± 2.2%. Still for that read-out and setting: with `NC(=O)c1cccc(-c2cnc3[nH]cc(-c4cccc(F)c4)c3c2)c1` [Compound 29] the figure was 23.1 ± 2.5%; with `NC(=O)c1cccc(-c2cnc3[nH]cc(-c4cccc(O)c4)c3c2)c1` [Compound 31], 30.5 ± 2.3%. On the same count and under the same terms, with `COc1cccc(-c2c[nH]c3ncc(-c4cccc(C(N)=O)c4)cc23)c1` [Compound 32] the figure was 44 ± 3.8%; with `NC(=O)c1cccc(-c2cnc3[nH]cc(-c4cccc(C(F)(F)F)c4)c3c2)c1` [Compound 33], 34.6 ± 4.1%; with `NC(=O)c1cccc(-c2cnc3[nH]cc(-c4cccc(OC(F)(F)F)c4)c3c2)c1` [Compound 34], 23.4 ± 3.3%. On the same count and under the same terms, with `NC(=O)c1cccc(-c2cnc3[nH]cc(-c4ccc(F)cc4)c3c2)c1` [Compound 35] the figure was 55.8 ± 4.6%. In the case of `NC(=O)c1cccc(-c2cnc3[nH]cc(-c4ccc(Cl)cc4)c3c2)c1` [Compound 36], on CDK8, the inhibition at 0.2 µM worked out at 61.6 ± 5.4% and the IC50 was found to be 0.128 ± 0.0038 µM. As for `NC(=O)c1cccc(-c2cnc3[nH]cc(-c4ccc(O)cc4)c3c2)c1` [Compound 37], the inhibition at 0.2 µM on CDK8 stood at 28.3 ± 3.1%. The same measure, in the same setting: with `COc1ccc(-c2c[nH]c3ncc(-c4cccc(C(N)=O)c4)cc23)cc1` [Compound 38] the figure was 26.4 ± 1.6%; with `NC(=O)c1cccc(-c2cnc3[nH]cc(-c4ccc(C(F)(F)F)cc4)c3c2)c1` [Compound 39], 22.3 ± 3.7%. As for `NC(=O)c1cccc(-c2cnc3[nH]cc(-c4ccc(OC(F)(F)F)cc4)c3c2)c1` [Compound 40], the inhibition at 0.2 µM on CDK8 was 46.3 ± 1.9%. Take `C[C@H]1O[C@@H](O[C@H]2[C@@H](O)C[C@H](O[C@H]3[C@@H](O)C[C@H](O[C@H]4CC[C@@]5(C)[C@H](CC[C@@H]6[C@@H]5C[C@@H](O)[C@]5(C)[C@@H](C7=CC(=O)OC7)CC[C@]65O)C4)O[C@@H]3C)O[C@@H]2C)C[C@H](O)[C@@H]1O` [Digoxin]: the efflux ratio (usually a quotient of directional permeabilities that is used to spot active efflux) in data set [1] (Caco-2) worked out at 6.2. Also, in data set [1] (setting [2]), the recovery was 92.5%. For the same molecule, the recovery in data set [1] (setting [3]) came to 99.2%. For the same molecule, in data set [1], the Papp A→B – broadly, how fast a substance crosses the layer from the apical side – was 9 nm/s and the Papp B→A (commonly how fast a substance crosses the layer from the basolateral side) was 56 nm/s. `CC(C)(C)NCC(O)COc1cccc2c1CC(O)C(O)C2` (centres unmarked) [Nadolol]: the recovery in data set [1] (setting [3]) was found to be 111%. In data set [1], the Papp A→B is 2 nm/s and the Papp B→A stood at 5 nm/s.

As to `CC(C)NCC(O)COc1cccc2ccccc12` (centres unmarked) [Propranolol], the recovery in data set [1] (setting [2]) came to 99.9%. For the same molecule, the recovery in data set [1] (setting [3]) is 107%. In data set [1], the Papp A→B was 402 nm/s and the Papp B→A amounted to 341 nm/s.

The record behind these values is PMC10810651, “Discovery of novel and potent CDK8 inhibitors for the treatment of acute myeloid leukaemia” (Journal of Enzyme Inhibition and Medicinal Chemistry, 2024).
